Measurements: patent US6511817B1, “Methods and device for in vitro detection and characterization of psychoactives using analysis of repetitive electrical activity in a neuronal sample” (Matsushita Electric Industrial Co., Ltd., priority 1999, dated 2003)
Entries after “also recorded” stand apart in the source; their conditions may differ.

Experiments:
Type in all cases: cell-based, Sprague-Dawley rat
[1] = tested on: hippocampal slice; assay: Effect of bath-applied drugs on carbachol-induced beta waves in hippocampal slices on a 64-electrode MED array, FFT analysis; details: for power within the 20 Hz band / shift in the peak: 10 μM Ampakine after carbachol
Source text: (§1) The general procedures for the preparation of the Multi-Electrode Dish (Matsushita Electric Industrial Co. Ltd., Osaka, Japan: “the MED probe”) were described above. Procedures for the MED probe preparation are also described by Oka et al. […]. The device has an array of 64 planar microelectrodes, each having a size of 50×50 μm, arranged in an 8 by 8 pattern. Probes come with two types of interpolar distance, 150 μm (Panasonic: MED-P515AP) and 450 μm (Panasonic: MED-P545AP).
(§2) To provide sufficient adhesion of the neuronal sample slice to the MED surface, the surface of the MED probe was treated with 0.1% polyethylenimine (Sigma: P-3143) in 25 mM borate buffer, pH 8.4, for 8 hours at room temperature. The probe surface was rinsed 3 times with sterile distilled water. The probe (chamber) was then filled with DMEM/F-12 mixed medium, containing 10% fetal bovine serum (GIBCO: 16141-079) and 10% horse serum (GIBCO: 16050-122), for at least 1 hour at 37° C. DMEM/F-12 mixed medium is a 1:1 mixture of Dulbecco's Modified Eagle's Medium and Ham's F-12 (GIBCO: D/F-12 medium, 12400-024), supplemented with N2 supplement (GIBCO: 17502-014) and hydrocortisone (20 nM, Sigma, H0888).
(§3) A 17-24 day old Sprague-Dawley rat was sacrificed by decapitation after anesthesia using halothane (2-Bromo-2 chloro-1,1,1 -trifluoroethane, Sigma: B4388), and the whole brain was removed carefully. The brain was immediately soaked in ice-cold, oxygenated preparation buffer of the following composition (in mM): 124 NaCl, 26 NaHCO3, 10 glucose, 3 KCl, 1.25 NaH2PO4, 2 CaCl2, 2 MgSO4, for approximately 2 minutes. Appropriate portions of the brain were trimmed and placed on the ice-cold stage of a vibrating tissue slicer (Leica: VT-1000S). The stage was immediately filled with both oxygenated and frozen preparation buffers. The thickness of each tissue slice was 350 μm. Each slice was gently taken off the blade by a painting brush, trimmed, and immediately soaked in the oxygenated preparation buffer for 1 hour at room temperature. Then a slice was placed on the center of the MED probe. The slice was positioned to cover the 8×8 array. After positioning the slice, the MED probe was immediately placed in a box filled with 95% O^2 and 5% CO^2 and allowed to recover at 32° C. for 1 hour.
(§4) During electrophysiological recording, the slices on the MED probe were placed in a small CO2 incubator (Asahi Lifescience: model 4020) at 32° C. After recovery of the slice on the MED probe, the medium was replaced with DMEM/F-12 mixed medium without serum. The slices were on the interface, and contacted with a moisturized 95% O2 and 5% CO2 gas mixture. In this condition, the responses were recorded for more than 2 hours.
(§5) Drugs were purchased from RBI (diazepam, bicuculline, CNQX, 2-hydroxysaclofen) or Sigma (all other compounds). CX614 and CX691 were produced by Cortex Pharmaceuticals Inc. (Irvine, Calif.). All drugs were bath applied at known concentrations and were prepared daily from frozen aliquots.
(§6) Spontaneous and evoked field potentials at all 64 sites were recorded simultaneously with the multi-channel recording system (Matsushita Electric Industrial Co. Ltd, the “MED64 system”) at a 20 kHz sampling rate. In the case of the evoked response, one of the planar microelectrodes out of the 64 available was used for cathode of stimulating. Bipolar constant current pulses (10 to 50 μA, 0.1 msec) were produced by the data acquisition software through the isolator. The stimulating microelectrode was selected by the 64 switch-box. The measured field potentials were then subjected to analysis using the CSD analysis (Nicholson et al) discussed below.

[2] = tested on: hippocampal slice; assay: Carbachol induction of rhythmic activity in hippocampus (fields CA1 and CA3), MED array, FFT analysis; details: for group mean dominant CA1 frequency / group mean dominant CA3 frequency: mean ± s.d.
Source text: as §1, §2, §3, §4, §5, §6

[3] = tested on: entorhinal cortex; assay: Carbachol-induced 40 Hz rhythm in retrohippocampal cortex, MED broad array
Procedure: as §3, with “Then a slice was placed on the center of the MED probe. The slice was positioned to cover the 8×8 array. After positioning the slice, the MED probe was immediately placed in a box filled with 95% O^2 and 5% CO^2 and allowed to recover at 32° C. for 1 hour.” left out
During electrophysiological recording, the slices on the MED probe were placed in a small CO2 incubator (Asahi Lifescience: model 4020) at 32° C. […] In this condition, the responses were recorded for more than 2 hours.
Spontaneous and evoked field potentials at all 64 sites were recorded simultaneously with the multi-channel recording system (Matsushita Electric Industrial Co. Ltd, the “MED64 system”) at a 20 kHz sampling rate. […] The measured field potentials were then subjected to analysis using the CSD analysis (Nicholson et al) discussed below. […]

[4] = diazepam plus carbachol, FIG. 13C

For `N#Cc1cc2[nH]c(=O)c(=O)[nH]c2cc1[N+](=O)[O-]` [CNQX], the “amplitude of carbachol-induced waves” value ([1]; 20 μM) was “significantly diminished and/or eliminated”, the “effect on carbachol-induced high frequency rhythms” value ([1]; 20 μM) was “greatly reduced” and the “power of carbachol-induced waves” value ([1]; 20 μM) was “significant decrease”. The “synchronized activity in carbachol-treated sample” value (shortened to “synchronized activity”) ([1]; 20 μM) was “very rapid loss”.

In the case of `O=C1c2cc3c(cc2OC2CCCN12)OCCO3` (centres unmarked) [CX614], the “power within the 20 Hz band” value [1] is reported as “significant increase” and the “shift in the peak” value [1] is reported as 10 Hz.

With `O=C(c1ccc2nonc2c1)N1CCCCC1` [CX691] the “power within the 20 Hz band” value [1] was “significant increase” and the “shift in the peak” value [1] was 10 Hz.

For `O=[N+]([O-])c1cc2nc(O)c(O)nc2cc1[N+](=O)[O-]` [DNQX], the “amplitude of carbachol-induced waves” value ([1]; 20 μM) was “significantly diminished and/or eliminated”, the “power of carbachol-induced waves” value ([1]; 20 μM) was “significant decrease” and the “synchronized activity” value ([1]; 20 μM) was “very rapid loss”.

`NS(=O)(=O)c1cccc2c1c([N+](=O)[O-])cc1nc(O)c(O)nc12` [NBQX] was tested, and the “amplitude of carbachol-induced waves” value ([1]; 10 μM) was “significantly diminished and/or eliminated”, the “power of carbachol-induced waves” value ([1]; 10 μM) was “significant decrease” and the “synchronized activity” value ([1]; 10 μM) was “very rapid loss”.

For `CN1[C@@H]2CC[C@H]1C[C@@H](OC(=O)C(CO)c1ccccc1)C2` (some centres unmarked) [atropine], the “effect on carbachol-induced high frequency rhythms” value ([1]; 20 μM) was “completely eliminated”.

For `C[N+](C)(C)CCOC(N)=O` [carbachol, carbyl choline chloride], the “slices with rhythmic activity in CA1 and CA3 close to or within the beta band (10-30 Hz)” value ([2]; after infusion of carbachol) was 41 of 55, the “group mean dominant CA1 frequency” value ([2]; all slices) was 18.8±5.7 Hz and the “group mean dominant CA3 frequency” value ([2]; all slices) was 16.4±5.7 Hz. For the same molecule, the “group mean dominant CA1 frequency” value ([2]; beta instances alone) was 19.2±4.8 Hz, the “group mean dominant CA3 frequency” value ([2]; beta instances alone) was 17.3±4.2 Hz and the “peak of rhythmic activity in apical dendrites of hippocampal pyramidal cell fields” value ([2]; carbachol 50 μM) was ~20 Hz. The “peak of the power spectrum” value ([2]; example slice of FIG. 6B) was 20 Hz, the “frequency of oscillations in deep layers of the medial entorhinal cortex” value ([3]; carbachol 50 μM) was 40 Hz and the “slices with forty Hz activity in the deep layers of the entorhinal cortex” value ([3]; slices with appropriately positioned electrodes) was “each of the 15 slices”.

With `CN1C(=O)CN=C(c2ccccc2)c2cc(Cl)ccc21` [diazepam] the “amplitude of beta oscillations” value ([1]; 3 μM diazepam, 20 μM carbachol) was “markedly enhanced”, the “change in the frequency of the waves” value ([1]; 3 μM diazepam, 20 μM carbachol) was “not accompanied by a significant change; also recorded: without much shift” and the “increase in power within the 20 Hz band over carbachol alone” value [1, 4] was “nearly threefold increase”. The “peak added at a higher (gamma) frequency” value [1, 4] was “approximately 40 Hz”.

For picrotoxin, the “effect on carbachol-induced beta waves” value ([1]; 50 μM picrotoxin) was “marked reduction”.
